Where two headings read alike, the source gives them in different places.
Experiments:
[1] = Tissue distribution after single oral dose; assay type: in vivo, mice; settings: for concentration at 20 h / concentration at 30 h / concentration at 1 h / concentration at 4 h / concentration at 8 h / concentration at 12 h / Kp: KM, mouse; for Kp: female
Protocol: The animals and treatment methods were the same as in the pharmacokinetic studies. Afterwards, the biological samples (n = 6 per group) were collected at 1, 4, 8, 12, 20, and 30 h, and the tissues including heart, liver, spleen, lung, kidney, stomach, intestine, brain, muscle (hind limb), fat (white adipose tissue ), reproductive organs (uterus, fallopian tube and ovary) stomach and its contents, and intestine and its contents, and the blood samples were simultaneously collected. All the tissues were washed with cold physiological saline (4 °C), excess fluid blotted, accurately weighed, and subjected to the processing as described in the sample preparation. QC samples and standard curve series solutions were prepared in the same way of blank gastrointestinal contents and livers, respectively. The concentrations of HQC, MQC, and LQC in mice tissues were 10, 1, and 0.1 μM·L^−1, respectively, and the concentrations of standard curve series solutions were 50, 25, 10, 5, 2.5, 1, 0.5, 0.25, 0.1, and 0.005 μM·L^−1 for high and low concentrations of standard curves.

[2] = system: breast cancer cells (MCF-7); design: method as in PMID 31175940; settings: mechanism of down regulating estrogen receptor alpha (ERα); cited from earlier work
[3] = liver, oral 500 mg·kg^−1, female mice, read-out: Concentration in Liver
[4] = lung, oral 500 mg·kg^−1, female mice, read-out: Concentration in Lung
[5] = muscle (hind limb), oral 500 mg·kg^−1, female mice, read-out: Concentration in Muscle
[6] = reproductive organs (uterus, fallopian tube and ovary), oral 500 mg·kg^−1, female mice, read-out: Concentration in Reproductive organs
[7] = spleen, oral 500 mg·kg^−1, female mice, read-out: Concentration in Spleen

CC(C)=C/C=C/[C@H](C)[C@H]1CC[C@]2(C)C[C@@H]3C(C)=CC(=O)[C@H]3/C(C=O)=C\C[C@@H]12 [MHO7, 6-epi-ophiobolin G]
concentration at 20 h [1, 3]: 60 ± 50 ng/g | concentration at 30 h [1, 3]: 10 ± 10 ng/g | concentration at 1 h [1, 4]: 430 ± 180 ng/g | concentration at 4 h [1, 4]: 1060 ± 450 ng/g | concentration at 8 h [1, 4]: 820 ± 710 ng/g | concentration at 12 h [1, 4]: 2340 ± 1910 ng/g | concentration at 20 h [1, 4]: 160 ± 40 ng/g | concentration at 30 h [1, 4]: 80 ± 20 ng/g | concentration at 1 h [1, 5]: 310 ± 220 ng/g | concentration at 4 h [1, 5]: 970 ± 480 ng/g | concentration at 8 h [1, 5]: 640 ± 370 ng/g | concentration at 12 h [1, 5]: 1420 ± 800 ng/g | concentration at 20 h [1, 5]: 170 ± 100 ng/g | concentration at 30 h [1, 5]: 20 ± 3 ng/g | concentration at 1 h [1, 6]: 880 ± 680 ng/g | concentration at 4 h [1, 6]: 2290 ± 1800 ng/g | concentration at 8 h [1, 6]: 23900 ± 11300 ng/g | concentration at 12 h [1, 6]: 13700 ± 10300 ng/g | concentration at 20 h [1, 6]: 1460 ± 1230 ng/g | concentration at 30 h [1, 6]: 360 ± 460 ng/g | concentration at 1 h [1, 7]: 40 ± 30 ng/g | concentration at 4 h [1, 7]: 430 ± 200 ng/g | concentration at 8 h [1, 7]: 480 ± 500 ng/g | concentration at 12 h [1, 7]: 200 ± 140 ng/g | concentration at 20 h [1, 7]: 310 ± 20 ng/g | concentration at 30 h [1, 7]: 10 ± 4 ng/g | Kp ([1]; brain, over 1-30 h, oral 500 mg·kg^−1, read-out: tissue/plasma concentration ratio range, brain): 0.36 to 6.11 | Kp ([1]; fat (white adipose tissue), over 1-30 h, oral 500 mg·kg^−1, read-out: tissue/plasma concentration ratio range, fat): 2.33 to 14 | Kp ([1]; heart / plasma, over 1-30 h, oral 500 mg·kg^−1, read-out: tissue/plasma concentration ratio range, heart): 0.31 to 4.2 | Kp ([1]; intestines, oral 500 mg·kg^−1, read-out: tissue/plasma concentration ratio, intestines): > 100 | Kp ([1]; kidney, over 1-30 h, oral 500 mg·kg^−1, read-out: tissue/plasma concentration ratio range, kidney): 0.68 to 17.2 | Kp ([1]; liver, over 1-30 h, oral 500 mg·kg^−1, read-out: tissue/plasma concentration ratio range, liver): 0.18 to 17.4 | Kp ([1]; lung, over 1-30 h, oral 500 mg·kg^−1, read-out: tissue/plasma concentration ratio range, lung): 0.72 to 6.84 | Kp ([1]; muscle (hind limb), over 1-30 h, oral 500 mg·kg^−1, read-out: tissue/plasma concentration ratio range, muscle): 0.99 to 5.54 | Kp ([1]; reproductive organs (uterus, fallopian tube and ovary), over 1-30 h, oral 500 mg·kg^−1, read-out: tissue/plasma concentration ratio range, reproductive organs): 6.05 to 30.4 | Kp ([1]; spleen, over 1-30 h, oral 500 mg·kg^−1, read-out: tissue/plasma concentration ratio range, spleen): 0.28 to 8.55 | Kp ([1]; stomach, oral 500 mg·kg^−1, read-out: tissue/plasma concentration ratio, stomach): > 1000 | amount in the intestine and its contents, of the intake ([1]; oral 500 mg·kg^−1, female mice): less than 5% | amount in the stomach and its contents, of the intake ([1]; oral 500 mg·kg^−1, female mice): 16.79% | concentration range in fat ([1]; over 1-30 h, oral 500 mg·kg^−1): 0.18–11.15 | concentration range in the brain ([1]; over 1-30 h, oral 500 mg·kg^−1): 0.01–0.95 | concentration range in the heart ([1]; over 1-30 h, oral 500 mg·kg^−1): 0.04–0.85 | concentration range in the kidney ([1]; over 1-30 h, oral 500 mg·kg^−1): 0.07–8.16 | concentration range in the liver ([1]; over 1-30 h, oral 500 mg·kg^−1): 0.01–3.01 | concentration range in the lung ([1]; over 1-30 h, oral 500 mg·kg^−1): 0.08–2.34 | concentration range in the muscle ([1]; over 1-30 h, oral 500 mg·kg^−1): 0.02–1.42 | concentration range in the reproductive organs ([1]; over 1-30 h, oral 500 mg·kg^−1): 0.36–23.90 | concentration range in the spleen ([1]; over 1-30 h, oral 500 mg·kg^−1): 0.01–0.48 | antitumor activity [2]: potent antitumor activity

Reference: PMC6950057, “Toxicity, Pharmacokinetics, and Gut Microbiome of Oral Administration of Sesterterpene MHO7 Derived from a Marine Fungus” (Marine Drugs, 2019)
